Assay [1] deals with T1, FLT3 D835Y (Homo sapiens, UniProt P36888, D835Y).
T1 construct: purchased DiscoverX (KINOMEscan); host or cells: E. coli (T7 phage) or HEK-293
T1 sequence (P36888 27-993 D835Y): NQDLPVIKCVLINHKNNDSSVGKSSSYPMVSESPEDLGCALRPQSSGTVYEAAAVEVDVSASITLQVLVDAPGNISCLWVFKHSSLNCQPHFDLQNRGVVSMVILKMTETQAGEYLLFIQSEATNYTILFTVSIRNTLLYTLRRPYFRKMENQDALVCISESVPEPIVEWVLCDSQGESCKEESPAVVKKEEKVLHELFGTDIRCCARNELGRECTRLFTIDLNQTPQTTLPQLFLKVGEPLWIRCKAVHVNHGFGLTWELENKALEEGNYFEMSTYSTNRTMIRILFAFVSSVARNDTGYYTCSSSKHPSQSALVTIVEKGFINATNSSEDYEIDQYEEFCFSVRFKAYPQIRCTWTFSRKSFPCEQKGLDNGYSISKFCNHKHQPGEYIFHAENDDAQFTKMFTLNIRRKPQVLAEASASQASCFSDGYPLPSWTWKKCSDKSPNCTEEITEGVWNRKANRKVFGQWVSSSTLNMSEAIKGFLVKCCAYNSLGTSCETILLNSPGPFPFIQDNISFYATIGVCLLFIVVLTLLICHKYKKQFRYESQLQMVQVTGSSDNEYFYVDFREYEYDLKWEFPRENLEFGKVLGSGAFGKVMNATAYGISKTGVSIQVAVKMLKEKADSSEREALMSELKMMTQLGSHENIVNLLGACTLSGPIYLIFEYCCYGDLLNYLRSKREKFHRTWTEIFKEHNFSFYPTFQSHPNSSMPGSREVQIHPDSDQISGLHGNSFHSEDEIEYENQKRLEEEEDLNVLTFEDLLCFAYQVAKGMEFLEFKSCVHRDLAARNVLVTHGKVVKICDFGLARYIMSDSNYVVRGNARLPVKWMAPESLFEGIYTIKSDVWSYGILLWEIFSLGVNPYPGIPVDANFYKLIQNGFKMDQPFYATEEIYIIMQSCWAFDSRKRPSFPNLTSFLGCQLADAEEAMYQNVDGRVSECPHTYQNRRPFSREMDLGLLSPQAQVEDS
The experiment in a line: DiscoverX KINOMEscan competition binding, FLT3 D835Y. The note with it: no ATP. The text has this: (§1) Kinase binding data were obtained for various exemplary compounds prepared according to Examples 2-15 using the DiscoverX KINOMEscan® active site-directed competition binding site-directed assay protocol described below. […] As a result, the data report thermodynamic interaction affinities (Kd values), rather than IC50 values that are dependent on ATP concentrations. The assay uses a DNA-tagged version of the protein kinase, and an immobilized ligand bound to a solid support. Compounds that directly or indirectly prevent kinase binding to the immobilized ligand reduce the amount of kinase captured on the solid support, which is detected using an ultra-sensitive qPCR method. Affinity constants reported from the assay have been reported to be independent of the immobilized ligand used that is coupled to the solid support (See supplemental information in Fabian, M. A. et. al., (2005) Nat. […] Wodicka, L. […] Biol. 17, 1241-1249.) Kinase-tagged T7 phage strains were prepared in an E. coli host derived from the BL21 strain. E. coli were grown to log-phase and infected with T7 phage and incubated with shaking at 32° C. until lysis. […] Kds were determined using an 11-point 3-fold compound dilution series with three DMSO control points. […] The kinase concentration in the eluates was measured by qPCR. Binding constants (Kds) were calculated with a standard dose-response curve using the Hill equation. […]

Assay [2] has as its target T2, FLT3 N841I (Homo sapiens, UniProt P36888, N841I).
T2 construct: purchased DiscoverX (KINOMEscan); host or cells: E. coli (T7 phage) or HEK-293
T2 sequence (P36888 27-993 N841I): T1 sequence (P36888 27-993 D835Y) with Y809D, N815I
The experiment in a line: DiscoverX KINOMEscan competition binding, FLT3 N841I. The conditions noted are these: no ATP.
Text: as §1

The text below walks through data of patent publication US20250368648A1, “MULTI-CYCLIC IRAK AND FLT3 INHIBITING COMPOUNDS AND USES THEREOF” (CHILDREN'S HOSPITAL MEDICAL CENTER, priority 2022, published 2025).

Where a chain is given by its changes, count along the chain named. Some results are limits rather than exact numbers.

What is called Kd is the constant that tells how readily two partners part at equilibrium. Read a low Kd as a tighter complex.

In the case of `COc1cc2ncc(-c3nc(N[C@H]4CNCC[C@@H]4F)c(F)cc3F)n2nc1C1CCC1` [Compound 15a, 6-(6-cyclobutyl-7-methoxyimidazo[1,2-b]pyridazin-3-yl)-3,5-difluoro-N-((3S,4S)-4-fluoropiperidin-3-yl)pyridin-2-amine], the figures for the Kd in assay [1] and in assay [2] were less than 170 pM and 250 pM, respectively.
